In patent US9802899B2, “Heterocyclic compounds as pesticides” (BAYER CROPSCIENCE AG, priority 2012, dated 2017):

Assay: Determination of the log P values by HPLC (formic acid method)
Format: physicochemical
Settings: reversed-phase HPLC column (C 18), reversed-phase column (C 18), acidic range (pH 3.4), 55° C.
Description: 1) Description of Method for Determination of the Log P Values (Formic Acid Method)
Eluents for determination in the acidic range (pH 3.4):
Eluent A: acetonitrile+1 ml of formic acid/liter. Eluent B: water+0.9 ml of formic acid/liter.
The lambda max values were determined in the maxima of the chromatographic signals using the UV spectra from 200 nm to 400 nm.

Row | chromatographic logP | SMILES
1 | 2.98 | Fc1cccc(F)c1-n1cccc1 [Ex. 46-I, 1-(2,6-Difluorophenyl)-1H-pyrrole]
2 | 3.37 | O=C(Nc1nn(-c2ncc(F)cc2F)c2ccc(F)cc12)c1ccccc1C(F)(F)F [Compound I-5-2, N-[1-(3,5-Difluoropyridin-2-yl)-5-fluoro-1H-indazol-3-yl]-2-(trifluoromethyl)benzamide]
3 | 1.97 | Nc1ccn(-c2cccc(Cl)c2Cl)n1 [1-(2,3-Dichlorophenyl)-1H-pyrazole-3-amine]
4 | 2.38 | O=C(Nc1cnn(-c2ncc(F)cc2F)n1)c1ccccc1C(F)(F)F [Compound I-2-63, N-[2-(3,5-Difluoropyridin-2-yl)-2H-1,2,3-triazol-4-yl]-2-(trifluoromethyl)benzamide]
5 | 3.17 | N#Cc1ccc(-n2ccc(NC(=O)c3ccccc3C(F)(F)F)n2)nc1Cl [Compound I-1-608, N-[1-(6-Chloro-5-cyanopyridin-2-yl)-1H-pyrazol-3-yl]-2-(trifluoromethyl)benzamide]
6 | 3.39 | O=C(Nc1ccn(-c2c(F)cc(C(F)(F)F)cc2F)n1)c1ccccc1C(F)(F)F [Compound I-1-230, N-{1-[2,6-Difluoro-4-(trifluoromethyl)phenyl]-1H-pyrazol-3-yl}-2-(trifluoromethyl)benzamide]
7 | 3.14 | N#Cc1ccc(Cl)nc1-n1ccc(NC(=O)c2ccccc2C(F)(F)F)n1 [Compound I-1-607, N-[1-(6-Chloro-3-cyanopyridin-2-yl)-1H-pyrazol-3-yl]-2-(trifluoromethyl)benzamide]

Same assay, conditions: reversed-phase column (C 18), acidic range (pH 3.4), 55° C.

Row | log P | SMILES | chromatographic logP
8 | 3.15 | CCn1nc(C)c(Cl)c1C(=O)Nc1ccn(-c2c(F)cccc2F)n1 [Compound I-1-309] | 
9 | 2.92 | O=C(Nc1ccn(-c2ccccc2C(F)(F)F)n1)c1ccccc1Cl [Compound I-1-4] | 
10 | 3.32 | CCCc1c(Cl)c(C(=O)Nc2ccn(-c3c(F)cccc3F)n2)nn1C [Compound I-1-314] | 
11 | 3.93 | Cc1nn(-c2ncccc2Cl)nc1N(C(=O)c1ccccc1C(F)(F)F)C(=O)c1ccccc1C(F)(F)F [Compound I-2-54] | 
12 | 2.86 | O=C(Nc1ccn(-c2ccccc2Br)n1)c1ccccc1Br [Compound I-1-52] | 
13 | 2.53 | Cn1nc(C(F)(F)F)c(C(=O)Nc2ccn(-c3c(F)cccc3F)n2)c1F [Compound I-1-112] | 
14 | 2.53 | Cc1cn(-c2ccccc2Cl)nc1NC(=O)c1cccnc1C(F)(F)F [Compound I-1-348] | 
15 | 2.63 | O=C(Nc1nn(-c2ncc(F)cc2F)cc1[N+](=O)[O-])c1ccccc1C(F)(F)F [Compound I-1-475] | 
16 | 3.05 | Cc1cc(C(=O)Nc2ccn(-c3ccccc3Cl)n2)c(C)o1 [Compound I-1-45] | 
17 | 4.54 | Cc1nn(-c2ccccc2Cl)nc1N(C(=O)c1ccccc1C(F)(F)F)C(=O)c1ccccc1C(F)(F)F [Compound I-2-22] | 
18 | 1.60 | Cc1nn(C)c(C)c1C(=O)Nc1ccn(-c2ncc(F)cc2F)n1 [Compound I-1-445] | 
19 | 2.64 | Cc1ccsc1C(=O)Nc1ccn(-c2c(F)cccc2F)n1 [Compound I-1-103] | 
20 | 3.29 | O=C(Nc1ccn(-c2cccc(F)c2F)n1)c1ncccc1C(F)(F)F [Compound I-1-68] | 
21 | 2.51 | O=C(Nc1ccn(-c2nc(F)c(F)cc2F)n1)c1c(F)cccc1F [Compound I-1-166] | 
22 | 3.19 | CC(C)Cc1nn(C)c(C(=O)Nc2ccn(-c3c(F)cccc3F)n2)c1[N+](=O)[O-] [Compound I-1-289] | 
23 | 2.77 | O=C(Nc1ccn(-c2c(F)cccc2F)n1)c1cccnc1OC(F)(F)F [Compound I-1-250] | 
24 | 2.32 | O=C(Nc1ccn(-c2ncc(F)cc2F)n1)c1ccccc1Cl [Compound I-1-143] | 
25 | 4.10 | O=C(Nc1ccn(-c2cc(F)c(F)cc2F)n1)c1ccccc1I [Compound I-1-196] | 
26 | 2.00 | CS(=O)(=O)c1ccccc1-n1ccc(NC(=O)c2ccccc2Br)n1 [Compound I-1-182] | 
27 | 2.57 | O=C(Nc1nn(-c2ncccc2Cl)nc1Cl)c1ccccc1I [Compound I-2-60] | 
28 | 2.96 | O=C(Nc1ccn(-c2c(F)cccc2F)n1)c1ccccc1OC(F)(F)F [Compound I-1-79] | 
29 | 2.58 | O=C(Nc1cnn(-c2ccccc2Br)n1)c1cccnc1C(F)(F)F [Compound I-2-8] | 
30 | 3.03 | O=C(Nc1cnn(-c2ccccc2Cl)n1)c1ccccc1I [Compound I-2-3] | 

Row | log P | SMILES | chromatographic logP
31 | 2.02 | O=C(Nc1ccn(-c2ncc(F)cc2F)n1)c1cccnc1C(F)(F)F [Compound I-1-151] | 
32 | 3.24 | Cc1cccnc1C(=O)Nc1ccn(-c2ccccc2Cl)n1 [Compound I-1-38] | 
33 | 2.27 | O=C(Nc1cnn(-c2ncc(F)cc2F)n1)c1ccccc1Br [Compound I-2-68] | 
34 | 2.13 | O=C(Nc1ccn(-c2ncccc2Br)n1)c1c(F)cccc1F [Compound I-1-551] | 
35 | 3.28 | O=C(Nc1ccn(-c2cncc(F)n2)n1)c1ccccc1I [Compound I-1-405] | 
36 | 2.09 | O=C(Nc1cnn(-c2c(F)cccc2F)n1)c1cccnc1Br [Compound I-2-37] | 
37 | 3.02 | O=C(Nc1ccn(-c2cccc(F)c2F)n1)c1ccccc1Cl [Compound I-1-66] | 
38 | 2.46 | O=C(Nc1nn(-c2ccccc2Br)nc1Cl)c1cccnc1Cl [Compound I-2-31] | 
39 | 2.61 | Cc1noc(C(F)(F)F)c1C(=O)Nc1ccn(-c2ncc(F)cc2F)n1 [Compound I-1-511] | 
40 | 2.20 | CC(=O)Nc1ccccc1C(=O)Nc1ccn(-c2c(F)cccc2F)n1 [Compound I-1-269] | 
41 | 1.99 | O=C(Nc1ccn(-c2ncccc2F)n1)c1c(F)cccc1F [Compound I-1-132] | 
42 | 3.01 | O=C(Nc1ccn(-c2cccc(F)c2F)n1)c1ccccc1Cl [Compound I-1-189] | 
43 | 1.44 | Cc1cccnc1C(=O)Nc1ccn(-c2ccccc2Br)n1 [Compound I-1-336] | 
44 | 1.57 | O=C(Nc1ccn(-c2ncccc2F)n1)c1cccnc1Br [Compound I-1-578] | 
45 | 2.31 | O=C(Nc1ccn(-c2cccnc2Cl)n1)c1ccccc1C(F)(F)F [Compound I-1-391] | 
46 | 3.19 | O=C(Nc1ccn(-c2cncc(F)n2)n1)c1cccnc1Br [Compound I-1-404] | 
47 | 2.91 | O=C(Nc1ccn(-c2ncc(Cl)cc2Cl)n1)c1ccccc1Cl [Compound I-1-432] | 
48 | 4.68 | Cc1nn(-c2ccccc2Cl)nc1N(C(=O)c1ccccc1I)C(=O)c1ccccc1I [Compound I-2-25] | 
49 | 2.43 | Cc1occc1C(=O)Nc1ccn(-c2c(F)cccc2F)n1 [Compound I-1-281] | 
50 | 2.37 | Cn1cc(Br)c(C(=O)Nc2ccn(-c3c(F)cccc3F)n2)n1 [Compound I-1-301] | 
51 | 2.31 | Cn1cc(C(=O)Nc2ccn(-c3ncc(F)cc3F)n2)c(C(F)(F)F)c1 [Compound I-1-156] | 
52 | 3.07 | O=C(Nc1ccn(-c2ccccc2Br)n1)c1ccccc1C(F)(F)F [Compound I-1-50] | 
53 | 2.95 | O=C(Nc1cnn(-c2c(F)cccc2F)n1)c1sccc1C(F)(F)F [Compound I-2-82] | 

Row | log P | SMILES | chromatographic logP
54 | 2.86 | Cc1cn(-c2ccccc2Cl)nc1NC(=O)c1ccccc1Br [Compound I-1-354] | 
55 | 2.33 | O=C(Nc1ccn(-c2ncc(F)cc2Cl)n1)c1c(F)cccc1F [Compound I-1-286] | 
56 | 2.61 | O=C(Nc1nn(-c2ncc(F)cc2F)cc1Br)c1ccccc1C(F)(F)F [Compound I-1-474] | 
57 | 2.86 | Cn1nc(C(F)(F)F)c(C(=O)Nc2ccn(-c3ccccc3Cl)n2)c1F [Compound I-1-383] | 
58 | 2.16 | O=C(Nc1ccn(-c2ncc(F)cc2F)n1)c1ncccc1Cl [Compound I-1-504] | 
59 | 3.15 | O=C(Nc1ccn(-c2ccccc2Cl)n1)c1sccc1C(F)F [Compound I-1-374] | 
60 | 3.84 | CCc1cc(NC(=O)c2c(F)cccc2F)nn1-c1ccc(F)cc1F [Compound I-1-207] | 
61 | 3.64 | CCCN(C(=O)c1ccccc1C(F)(F)F)c1ccn(-c2c(F)cccc2F)n1 [Compound I-1-261] | 
62 | 3.04 | O=C(Nc1ccn(-c2nc(F)c(F)cc2F)n1)c1ccccc1I [Compound I-1-165] | 
63 |  | Nc1ccn(-c2c(F)cccc2F)n1 [1-(2,6-Difluorophenyl)-1H-pyrazole-3-amine] | 1.13
64 | 1.77 | O=C(Nc1ccn(-c2ncc(F)cc2F)n1)c1cccnc1C(F)F [Compound I-1-460] | 
65 | 3.20 | O=C(Nc1ccn(-c2ccccc2Cl)n1)c1cccc(Cl)c1Cl [Compound I-1-350] | 
66 | 2.48 | N#Cc1ccccc1C(=O)Nc1ccn(-c2c(F)cccc2F)n1 [Compound I-1-272] | 
67 | 2.17 | CC1=C(C(=O)Nc2ccn(-c3ncc(F)cc3F)n2)SCCO1 [Compound I-1-498] | 
68 | 2.96 | O=C(Nc1ccn(-c2ccccc2Cl)n1)c1occc1I [Compound I-1-378] | 
69 | 3.62 | O=C(c1ccccc1C(F)(F)F)N(CC1CC1)c1ccn(-c2ncc(F)cc2F)n1 [Compound I-1-471] | 
70 | 2.10 | Cc1cc(C(=O)Nc2ccn(-c3c(F)cccc3F)n2)n(C)n1 [Compound I-1-232] | 
71 | 2.21 | N#Cc1cc(F)ccc1-n1ccc(NC(=O)c2cccnc2C(F)(F)F)n1 [Compound I-1-627] | 
72 | 2.50 | O=C(Nc1ccn(-c2ncc(F)cc2F)n1)c1c(F)cccc1Br [Compound I-1-637] | 
73 | 2.94 | O=C(Nc1ccn(-c2cnc(Cl)cn2)n1)c1ccccc1C(F)(F)F [Compound I-1-385] | 
74 | 1.69 | Cn1cc([N+](=O)[O-])c(C(=O)Nc2ccn(-c3ncc(F)cc3F)n2)n1 [Compound I-1-453] | 
75 | 2.84 | CCn1ncc(Br)c1C(=O)Nc1ccn(-c2c(F)cccc2F)n1 [Compound I-1-299] | 
76 | 3.05 | O=C(Nc1ccn(-c2ccccc2C(F)(F)F)n1)c1ccnn1C(F)F [Compound I-1-7] | 
